US20230220346A1, “BIOLOGICALLY SYNTHESIZED HYDROXYAPATITE FOR BONE REGENERATION AND TISSUE ENGINEERING” (BIOVENTURES, LLC, priority 2019, published 2023)

Legend:
[1] = tested on: MG-63 and Saos-2 cell lines; test: Alizarin Red S biomineralization assay: phosphate source comparison, titration, ascorbic acid (FIG. 1A, 1C, 1E-G); type: cell-based, human; conditions: for dose dependence of biomineralization (titration assays): FIG. 1E-G; for biomineralization with the substance as organic phosphate source: substituted for βGP, 2 mM, with ALP, FIG. 1B,C
Protocol: (§1) Biomineralization assays and Alizarin Red S staining: All human and mouse cell lines and human peripheral blood mononuclear cells (MNCs) were maintained in MEMα/10% FBS with penicillin/streptomycin and glutamine in a 37° C. humidified incubator with 5% CO2. […] The medium was replaced after 4 days. Alizarin Red S staining was performed at room temperature by removing the culture medium, washing the cells twice with 1×PBS (pH 7.4), fixing the cells in 10% neutral buffered formalin (Richard-Allan Scientific, Kalamazoo, Mich., USA) for 30 min, rinsing twice with Milli-Q water, staining with Alizarin Red S for 30 min, and destaining twice in Milli-Q water. A ZEISS inverted fluorescence/brightfield microscope equipped with an Infinity 3 digital camera and software system was used for imaging.

Saos-2 cell line = test: Alizarin Red S (ARS) biomineralization assay in Saos-2; type: cell-based, human; conditions: for biomineralization (Alizarin Red S staining): MEMα/10% FBS plus the supplement only, no ALP added, 7 days
Protocol: as §1

MG-63 cell line = test: Alizarin Red S (ARS) biomineralization assay in MG-63; type: cell-based, human; conditions: MEMα/10% FBS plus the supplement only, no ALP added, 7 days
Protocol: as §1

[2] = tested on: human blood mononuclear cells (MNCs); test: Alizarin Red S biomineralization assay in human blood mononuclear cells; type: cell-based; conditions: MEMα/10% FBS with αGP alone or CIP alone (the other missing), 7 days
Protocol: as §1
Coating cell culture plate with Collagen Type I, rat tail for mineralization assays: To coat a 48-well plate with Collagen Type I at 5 μg/cm^2, the stock solution was diluted to 25 μg/mL in 17.5 mM of acetic acid and aliquoted […] into each well. After incubating at room temperature for one hour, the Collagen Type I solution was removed. Each well was rinsed with 1×PBS (pH 7.4) and air-dried at room temperature. Human blood MNCs were suspended in the conditioned media and distributed into each well (1×10^5 cell/well) prior to a 7-day incubation. […]

`[Ca+2]` [Ca^2+, calcium ions] was tested, and the “dose dependence of biomineralization (titration assays)” value [1] was “depended on the doses”.

In the case of `O=P(O)(O)OCC(O)CO` (stereo not drawn) [NSC 9231, glycerophosphoric acid], the “biomineralization with the substance as organic phosphate source” value [1] is reported as “did not occur”.

`O=C1O[C@H]([C@@H](O)CO)C(O)=C1O` [Vit. C, Ascorbic acid] was tested, and the “biomineralization (Alizarin Red S staining)” value (Saos-2 cell line) was “No mineralization”, the “biomineralization (Alizarin Red S staining)” value (MG-63 cell line) was “No mineralization” and the “need of ascorbic acid for biomineralization” value ([1]; MEMα with or without ascorbic acid, FIG. 1A and FIG. 8) was “unnecessary or even deleterious”.

With `NCCC(O)(P(=O)(O)O)P(=O)(O)O` [pamidronate] the “biomineralization with the substance as organic phosphate source” value [1] was “did not occur”.

In the case of `O.O=P([O-])([O-])OCC(O)CO.[Na+].[Na+]` (stereo not drawn) [αGP, Disodium α-glycerophosphate hydrate], the “incubation time until biomineralization occurred at cytoplasmic membrane and cytosol” value (Saos-2 cell line; MEMα/10% FBS with 2 mM αGP) is reported as no more than 24 h, the “biomineralization (Alizarin Red S staining)” value [2] is reported as “did not occur” and the “dose dependence of biomineralization (titration assays)” value [1] is reported as “depended on the doses”. For the same compound, the “relative efficiency of phosphoester salts in eliciting biomineralization” value ([1]; compared to βGP and PEP, FIG. 1C) was “most efficient”.

With `O=P([O-])([O-])OC(CO)CO.[Na+].[Na+]` [βGP, disodium β-glycerophosphate] the “biomineralization (Alizarin Red S staining)” value (Saos-2 cell line) was “could mineralize” and the “biomineralization (Alizarin Red S staining)” value (MG-63 cell line) was “could not”.
